Results reported in US20070148154A1, “Use of superoxide dismutase mimetics and reductase gultatione in the form of anticancer drugs” (UNIVERSITE RENE DESCARTES (PARIS V), priority 2004, published 2007).

Experiments:
[1] = system: Hepa 1-6 (mouse liver hepatoma); test: In vitro cell proliferation assay ([3H]-thymidine); type: cell-based; settings: for decrease in tumor cell proliferation, antitumor agent alone: no antioxidant
Method: (§4) In vitro cell proliferation assays were carried out on the following cell lines: CT26 (mouse colon carcinoma, ATCC (American Type Culture Collection) No. 2638), Hepa 1-6 (mouse liver hepatoma, ATCC No. 1830), A549 (human lung carcinoma, ATCC No. 185).
(§5) The cell proliferation is determined by incubating the cells for 16 hours with [^3H]-thymidine (1 μCi/well).

A549 tumor cells = test: In vitro viability test (MTT); type: cell-based, human; settings: for viability reduced by: 400 μM, 48 h
Method: (§6) In vitro viability tests, in response to the treatment with NAC, CuDIPS, MnTBAP or MnDPDP, were carried out on the cell lines of Example 1 and on normal human leukocytes. The latter were obtained from normal volunteers, after informed consent, by taking venous blood samples collected on an anticoagulant (lithium-heparinate). The red blood cells were lysed by osmotic shock using a hypotonic solution of potassium acetate and the leukocytes were cultured under the conditions described in Example 1.
(§7) For the viability test, the cells (2×10^4 cells/well) were seeded into 96-well plates (COSTAR, Corning Inc. NY, USA) and incubated for 48 hours in complete medium supplemented with increasing concentrations, from 0 to 400 μm, of NAC, of MnTBAP, of CuDIPS or of MnDPDP. The cell viability was evaluated by reduction of a methylthiazoletetrazolium salt (MTT; SIGMA) into formazan. The cells were exposed to 20 μl of MTT (5 mg/ml in PBS) and incubated for 4 h at 37° C. 150 μl of medium were then removed from each well and the reaction was visualized by the addition of 100 μl of DMSO (SIGMA). The absorbance was analyzed for each well at 550 nm and at 630 nm with an ELISA plate reader. The number of viable cells was determined by the difference between the absorbance at 550 nm and the absorbance at 630 nm.
(§8) The viability tests were carried out on the CT26, Hepa 16 and A549 tumor lines, and on normal human leukocytes, according to the protocol described in Example 2.

normal human leukocytes = test: In vitro viability test (MTT); settings: for decrease in viability of normal leukocytes, antitumor agent alone: no antioxidant; for decrease in cell viability, maximum / effect on viability of normal human leukocytes: 0 to 400 μM, 48 h; for effect on the cytotoxic effect of taxol on normal leukocytes: with 20 μM taxol; for effect on the cytotoxic effect of taxol on normal leukocytes / effect on the cytotoxic effect of oxaliplatin on normal leukocytes / effect on the cytotoxic effect of 5-FU on normal leukocytes: increasing concentrations of antioxidant; for effect on the cytotoxic effect of oxaliplatin on normal leukocytes: with 1 mM oxaliplatin; for effect on the cytotoxic effect of 5-FU on normal leukocytes: with 40 mM 5-FU
Method: as §6, §7, §8

CT26 tumor cells = test: In vitro viability test (MTT); type: cell-based, mouse; settings: for viability reduced by: 400 μM, 48 h
Method: as §6, §7, §8

Hepa 1-6 tumor cells = test: In vitro viability test (MTT); type: cell-based, mouse; settings: for viability reduced by: 400 μM, 48 h
Method: as §6, §7, §8

[2] = system: CT26 (mouse colon carcinoma); test: In vitro cell proliferation assay ([3H]-thymidine); type: cell-based; settings: for decrease in tumor cell proliferation, antitumor agent alone: no antioxidant
Method: as §4, §5

[3] = system: A549 (human lung carcinoma); test: In vitro cell proliferation assay ([3H]-thymidine); type: cell-based; settings: for decrease in tumor cell proliferation, antitumor agent alone: no antioxidant
Method: as §4, §5

[4] = system: Hepa 1-6, CT26 and A549 tumor cells; test: In vitro cell proliferation assay ([3H]-thymidine), result stated for the tumor lines together; settings: for reduction in cell proliferation: 400 μM, 48 h incubation; for effect on the cytostatic (antiproliferative) effect of oxaliplatin: with 10 μM oxaliplatin; for effect on the cytostatic (antiproliferative) effect of oxaliplatin / effect on the cytostatic effect of taxol / effect on the cytostatic effect of 5-FU: increasing concentrations of antioxidant; for effect on the cytostatic effect of taxol: with 10 μM taxol; for effect on the cytostatic effect of 5-FU: with 50 μM 5-FU
Method: as §4, §5
The following antitumor molecules: oxaliplatin (belonging to the cisplatin family); taxol; 5-fluorouracil; which are known to induce ROS production in tumor cells, were used. For each of these molecules, cell proliferation assays and cell viability tests were carried out, in the absence of antioxidant molecules, or in the presence of increasing concentrations of NAC, of MnTBAP, of CuDIPS or of MnDPDP.

[5] = system: CT26 carcinoma tumor cells in BALB/c mice; test: In vivo antitumor activity, subcutaneous CT26 tumors; set-up: species or system mouse; settings: for decrease in tumor volume at one month compared with the nontreated animals / decrease in tumor volume at one month compared with animals treated only with oxaliplatin: 10 mg/kg i.p.; for decrease in tumor volume at one month compared with the nontreated animals: no oxaliplatin; for decrease in tumor volume at one month compared with animals treated only with oxaliplatin: plus oxaliplatin 20 mg/kg
Method: (§1) The in vivo antitumor activity of various antioxidant treatments was estimated. For these experiments, female six- to eight-week-old BALB/c (for the injection of CT-26 tumor cells) or C57/BL6 (for the injection of Hepa 1-6 tumor cells) mice were used (IFFA CREDO, L'Arbresles, France). Two million tumor cells were injected into the back of the animals subcutaneously. When the size of the tumor reached 200 to 500 mm^3, the animals were given a single injection of 20 mg/kg of oxaliplatin (ELOXATIN®) or of a saline solution.
(§2) The mice were then treated intraperitoneally, two hours after the injection of oxaliplatin or of saline solution, with 10 mg/kg of mangafodipir, of MnTBAP or of CuDIPS, or with 150 mg/kg of NAC, or with a saline solution. The injection of the various antioxidants was continued for one month (three injections per week at the same doses). A group of mice inoculated with tumor cells was not treated.
(§3) The size of the tumors was measured every three days. The tumor volume was calculated as follows: VT (mm^3)=(L×W^2)/2, where L is the longest dimension and W the shortest dimension of the tumor in mm. Fifteen mice were included in each group.

[6] = system: Hepa 1-6, CT26 and A549 tumor cells; test: In vitro viability test (MTT), result stated for the tumor lines together; settings: for effect on the cytotoxic effect of oxaliplatin on tumor cells: with 10 μM oxaliplatin; for effect on the cytotoxic effect of oxaliplatin on tumor cells / effect on the cytotoxic activity of taxol on tumor cells / effect on the cytotoxic activity of 5-FU on tumor cells: increasing concentrations of antioxidant; for effect on the cytotoxic activity of taxol on tumor cells: with 10 μM taxol; for effect on the cytotoxic activity of 5-FU on tumor cells: with 50 μM 5-FU; for effect on tumor cell viability: 0 to 400 μM, 48 h
Method: In vitro viability tests, in response to the treatment with NAC, CuDIPS, MnTBAP or MnDPDP, were carried out on the cell lines of Example 1 and on normal human leukocytes.
as §7
For each of these molecules, cell proliferation assays and cell viability tests were carried out, in the absence of antioxidant molecules, or in the presence of increasing concentrations of NAC, of MnTBAP, of CuDIPS or of MnDPDP.
as §8

[7] = system: Hepa 1-6 cells in C57BL/6 mice; test: In vivo antitumor activity, subcutaneous Hepa 1-6 tumors; set-up: species or system mouse; settings: for decrease in tumor volume at one month compared with the nontreated animals: no oxaliplatin; for effect on the inhibitory (antitumor) effect of oxaliplatin on tumor growth: mice treated with oxaliplatin 20 mg/kg, NAC 150 mg/kg, SOD mimetics 10 mg/kg i.p.
Method: as §1, §2, §3

plasmid pcDNA3.1 = test: Plasmid DNA alteration (agarose gel electrophoresis, densitometry); settings: for effect on the structure of plasmid DNA (form I / II / III): 37° C., 24 h, SOD mimetics 5 μM, oxaliplatin maximum at DNA/oxaliplatin ratio 0.5
Method: The purified plasmid pcDNA3.1 (INVITROGEN) was used to analyze the potential DNA alterations in response to the addition of molecules used in cancer chemotherapy in the presence, or in the absence, of antioxidant enzyme modulators. This DNA was then stored at −20° C. in 10 mM TRIS, 1 mM EDTA until its use.
The plasmid DNA was incubated with oxaliplatin at a molar ratio of 0.50 in a final volume of 50 μl. MnTBAP (5 μM), CuDIPS (5 μM), mangafodipir (5 μM) or NAC (5 mM) were then added to the solution. The production of superoxide anion was realized by the addition of 200 μM xanthine (SIGMA) and 1 U of xanthine oxidase (SIGMA). The incubation was carried out in the dark at 37° C. for 24 h. At the end of the incubation period, 10 μl aliquots were subjected to 0.8% agarose gel electrophoresis and detected by ethidium bromide staining. The gels were then analyzed by densitometry (VILBER LOURMAT, Marnes-la-Vallée, France).

[8] = 10 mg/kg i.p., three injections per week

| Compound | reduction in cell proliferation [4] | effect on the cytostatic (antiproliferative) effect of oxaliplatin [4] | effect on the cytostatic effect of taxol [4] | effect on the cytostatic effect of 5-FU [4] | effect on the cytotoxic effect of taxol on normal leukocytes (normal human leukocytes) | effect on the cytotoxic effect of oxaliplatin on normal leukocytes (normal human leukocytes) | effect on the cytotoxic effect of 5-FU on normal leukocytes (normal human leukocytes) | decrease in tumor volume at one month compared with the nontreated animals ([5]; three injections per week) | decrease in tumor volume at one month compared with animals treated only with oxaliplatin ([5]; three injections per week) | effect on the cytotoxic effect of oxaliplatin on tumor cells [6] | effect on the cytotoxic activity of taxol on tumor cells [6] | effect on the cytotoxic activity of 5-FU on tumor cells [6] | decrease in tumor volume at one month compared with the nontreated animals [7, 8] | effect on the inhibitory (antitumor) effect of oxaliplatin on tumor growth [7] | also measured |
| --- | --- | --- | --- | --- | --- | --- | --- | --- | --- | --- | --- | --- | --- | --- | --- |
| O=c1[nH]cc(F)c(=O)[nH]1 [5-FU, 5-fluoro-1,2,3,4-tetrahydropyrimidine-2,5-dione] |  |  |  |  |  |  |  |  |  |  |  |  |  |  | decrease in tumor cell proliferation, antitumor agent alone ([1]; 50 μM): 91%; cytotoxicity at 50 µM (A549 tumor cells; Homo sapiens, A549, 50 μM, no antioxidant, read-out: decrease in cell viability, antitumor agent alone, on average): 25%; decrease in viability of normal leukocytes, antitumor agent alone (normal human leukocytes; 40 mM): approximately 19%; cytotoxicity at 50 µM (CT26 tumor cells; Mus musculus, CT26, 50 μM, no antioxidant, read-out: decrease in cell viability, antitumor agent alone, on average): 85%; cytotoxicity at 50 µM (Hepa 1-6 tumor cells; Mus musculus, Hepa1-6, 50 μM, no antioxidant, read-out: decrease in cell viability, antitumor agent alone, on average): 65%; decrease in tumor cell proliferation, antitumor agent alone ([2]; 50 μM): 91%; decrease in tumor cell proliferation, antitumor agent alone ([3]; 50 μM): 85% |
| CC(C)c1cc(C(=O)[O-])c(O)c(C(C)C)c1.CC(C)c1cc(C(=O)[O-])c(O)c(C(C)C)c1.[Cu+2] [CuDIPS, Cu[II]-[diisopropylsalicylate]] | ~90% | increase | increases | increase | increases | increase | increases | 28% | 31% | increase | increases | increases | 9% | does not significantly increase | viability reduced by (A549 tumor cells): 50%; decrease in cell viability, maximum (normal human leukocytes): 50%; viability reduced by (CT26 tumor cells): 85%; viability reduced by (Hepa 1-6 tumor cells): 74% |
| O=C(O)c1ccc(-c2c3nc(c(-c4ccc(C(=O)O)cc4)c4ccc([n-]4)c(-c4ccc(C(=O)O)cc4)c4nc(c(-c5ccc(C(=O)O)cc5)c5ccc2[n-]5)C=C4)C=C3)cc1.[Mn+3] [MnTBAP, Mn(III) tetrakis(5,10,15,20-benzoic acid)-porphyrin] | ~90% | increase | increases | increase | virtually no influence | increase | only a very weak influence | 59% | 35% | increase | increases | increases | 42% | does not significantly increase | viability reduced by (A549 tumor cells): 37%; decrease in cell viability, maximum (normal human leukocytes): 18%; viability reduced by (CT26 tumor cells): 75%; viability reduced by (Hepa 1-6 tumor cells): 62% |
| CC(=O)N[C@@H](CS)C(=O)O [NAC, N-acetylcystein] |  | reduces | reduces | inhibits | decreases | decreases | decreases |  |  | decreases | does not influence | does not modify |  | completely blocks | increase in proliferation ([1]; 100 μM, 48 h incubation): 73%; effect on viability of normal human leukocytes (normal human leukocytes): no effect; increase in tumor volumes after one month compared with mice which do not receive NAC ([5]; 150 mg/kg i.p., three injections per week, mice not treated with oxaliplatin): 44%; effect on the inhibitory effect of oxaliplatin on tumor growth ([5]; mice treated with oxaliplatin 20 mg/kg, NAC 150 mg/kg i.p.): completely blocks; increase in proliferation ([2]; 400 μM, 48 h incubation): 47%; increase in proliferation ([3]; 400 μM, 48 h incubation): 45%; effect on DNA impairments by mangafodipir, ROS and oxaliplatin (plasmid pcDNA3.1; NAC 5 mM): partially inhibit; effect on DNA impairment by superoxide anions (xanthine/xanthine oxidase) (plasmid pcDNA3.1; NAC 5 mM, X/XO): inhibited; effect on DNA damage by oxaliplatin coincubated with X/XO (plasmid pcDNA3.1; NAC 5 mM, X/XO and low doses of oxaliplatin): decreases the damage; effect on tumor cell viability [6]: no effect; increase in tumor volumes after one month compared with mice which are not given NAC ([7]; 150 mg/kg i.p., three injections per week): 50% |
| N[C@@H]1CCCC[C@H]1N.O=C([O-])C(=O)[O-].[Pt+2] [oxaliplatin, [(1R,2R)-1,2-cyclohexanediamine-N,N′][oxalate-(2-)—O,O′]platinum (II)] |  |  |  |  |  |  |  |  |  |  |  |  |  |  | decrease in tumor cell proliferation, antitumor agent alone ([1]; 10 μM): 70%; decrease in cell viability, antitumor agent alone, on average (A549 tumor cells; 10 μM, no antioxidant): 28%; decrease in viability of normal leukocytes, antitumor agent alone (normal human leukocytes; 1 mM): approximately 50%; decrease in cell viability, antitumor agent alone, on average (CT26 tumor cells; 10 μM, no antioxidant): 27%; decrease in cell viability, antitumor agent alone, on average (Hepa 1-6 tumor cells; 10 μM, no antioxidant): 50%; tumor volumes compared with the nontreated animals ([5]; single injection of 20 mg/kg): divides the tumor volumes in half; decrease in tumor cell proliferation, antitumor agent alone ([2]; 10 μM): 91%; decrease in tumor cell proliferation, antitumor agent alone ([3]; 10 μM): 93%; effect on the structure of plasmid DNA (form I / II / III) (plasmid pcDNA3.1): dose-dependent impairment; tumor volumes compared with the nontreated animals ([7]; single injection of 20 mg/kg): divides the tumor volumes by four |
| CC(=O)O[C@H]1C(=O)[C@@]2(C)[C@H]([C@H](OC(=O)c3ccccc3)[C@]3(O)C[C@H](OC(=O)[C@H](O)[C@@H](NC(=O)c4ccccc4)c4ccccc4)C(C)=C1C3(C)C)[C@]1(OC(C)=O)CO[C@@H]1C[C@@H]2O [taxol] |  |  |  |  |  |  |  |  |  |  |  |  |  |  | decrease in tumor cell proliferation, antitumor agent alone ([1]; 10 μM): 65%; cytotoxicity at 10 µM (A549 tumor cells; Homo sapiens, A549, 10 μM, no antioxidant, read-out: decrease in cell viability, antitumor agent alone, on average): 47%; decrease in viability of normal leukocytes, antitumor agent alone (normal human leukocytes; 20 μM): approximately 50%; cytotoxicity at 10 µM (CT26 tumor cells; Mus musculus, CT26, 10 μM, no antioxidant, read-out: decrease in cell viability, antitumor agent alone, on average): 50%; cytotoxicity at 10 µM (Hepa 1-6 tumor cells; Mus musculus, Hepa1-6, 10 μM, no antioxidant, read-out: decrease in cell viability, antitumor agent alone, on average): 25%; decrease in tumor cell proliferation, antitumor agent alone ([2]; 10 μM): 71%; decrease in tumor cell proliferation, antitumor agent alone ([3]; 10 μM): 85% |
| manganese dipyridoxyl phosphate [MnDPDP] | ~90% | increase | increases | increase | inhibits | inhibits | inhibits | 54% | 63% | increase | increases | increases | 34% |  | effect on viability of normal human leukocytes (normal human leukocytes): does not influence; effect on the structure of plasmid DNA (form I / II / III) (plasmid pcDNA3.1): induces, per se, DNA damage; effect on tumor cell viability [6]: reduces, in a dose-dependent manner; decrease in tumor volume at one month compared with animals treated only with oxaliplatin ([7]; 10 mg/kg i.p., three injections per week, plus oxaliplatin 20 mg/kg): 63% |
